This assay relates to L1210 leukemia ip in BDF1 mice, survival T/C. As to the kind of experiment: NCI In Vivo Anticancer Drug Screen. Data for tumor model L1210 Leukemia (intraperitoneal) in B6D2F1 (BDF1) mice. The following applies: endpoint: mean survival time, higher = longer survival. The method, boiled down:
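Mice bearing the transplanted tumor received compound or vehicle. Survival of the treated group was divided by that of the vehicle-treated control group to give the ratio.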

Where [1] appears, read: dose: 100.0 mg/kg/injection, schedule: Q01DX009 (ip), vehicle: Klucel (hydroxypropylcellulose) (HPC).
The mark [2] stands for this setting: dose: 100.0 mg/kg/injection, schedule: Q04DX003 (ip), vehicle: Klucel (hydroxypropylcellulose) (HPC).
Setting [3] is: dose: 200.0 mg/kg/injection, schedule: Q01DX009 (ip), vehicle: Klucel (hydroxypropylcellulose) (HPC).
The mark [4] stands for this setting: dose: 200.0 mg/kg/injection, schedule: Q04DX003 (ip), vehicle: Klucel (hydroxypropylcellulose) (HPC).
Where [5] appears, read: dose: 400.0 mg/kg/injection, schedule: Q01DX009 (ip), vehicle: Klucel (hydroxypropylcellulose) (HPC).
Setting [6] is: dose: 100.0 mg/kg/injection, schedule: Q04DX003 (ip), vehicle: saline.
Setting [7] is: dose: 100.0 mg/kg/injection, schedule: Q04DX003 (ip), vehicle: saline with Tween-80.
Setting [8] is: dose: 200.0 mg/kg/injection, schedule: Q04DX003 (ip), vehicle: saline with Tween-80.
[9] abbreviates: dose: 400.0 mg/kg/injection, schedule: Q04DX003 (ip), vehicle: saline with Tween-80.
Setting [10] is: dose: 100.0 mg/kg/injection, schedule: Q01DX001 (ip), vehicle: Klucel (hydroxypropylcellulose) (HPC).
The mark [11] stands for this setting: dose: 200.0 mg/kg/injection, schedule: Q01DX001 (ip), vehicle: Klucel (hydroxypropylcellulose) (HPC).
[12] abbreviates: dose: 400.0 mg/kg/injection, schedule: Q01DX001 (ip), vehicle: Klucel (hydroxypropylcellulose) (HPC).

Where “and” joins values, the source holds several entries; their conditions need not be identical. Equal entries are not always repeated. Toxic doses and inconclusive results are not listed.

For `O=C1C(NC(=O)C2CCCCC2)=C(N2CC2)C(=O)C(NC(=O)C2CCCCC2)=C1N1CC1`, the T/C runs as follows: (dose: 50.0 mg/kg/injection, schedule: Q01DX010 (ip), vehicle: saline) 93 % of control and 101 % of control; (dose: 50.0 mg/kg/injection, schedule: Q01DX Z (ip), vehicle: Klucel (hydroxypropylcellulose) (HPC)) 105 % of control; (dose: 78.0 mg/kg/injection, schedule: Q01DX Z (ip), vehicle: carboxymethylcellulose (CMC)) 115 % of control; (dose: 100.0 mg/kg/injection, schedule: Q01DX010 (ip), vehicle: saline) 101 % of control and 104 % of control; (dose: 100.0 mg/kg/injection, schedule: Q01DX Z (ip), vehicle: Klucel (hydroxypropylcellulose) (HPC)) 109 % of control; (dose: 117.0 mg/kg/injection, schedule: Q01DX Z (ip), vehicle: carboxymethylcellulose (CMC)) 104 % of control. Moreover, the T/C was 119 % of control (dose: 175.0 mg/kg/injection, schedule: Q01DX Z (ip), vehicle: carboxymethylcellulose (CMC)); 98 % of control and 115 % of control (dose: 200.0 mg/kg/injection, schedule: Q01DX010 (ip), vehicle: saline); 150 % of control (dose: 263.0 mg/kg/injection, schedule: Q01DX Z (ip), vehicle: carboxymethylcellulose (CMC)); 98 % of control and 104 % of control (dose: 400.0 mg/kg/injection, schedule: Q01DX010 (ip), vehicle: saline); 102 % of control (dose: 400.0 mg/kg/injection, schedule: Q01DX Z (ip), vehicle: Klucel (hydroxypropylcellulose) (HPC)); 102 % of control and 119 % of control (dose: 440.0 mg/kg/injection, schedule: Q01DX001 (ip), vehicle: carboxymethylcellulose (CMC)). Besides, the T/C is 103 % of control and 91 % of control (dose: 670.0 mg/kg/injection, schedule: Q01DX001 (ip), vehicle: carboxymethylcellulose (CMC)); 101 % of control and 103 % of control (dose: 1000.0 mg/kg/injection, schedule: Q01DX001 (ip), vehicle: carboxymethylcellulose (CMC)).
Consider `COC(=O)CCCCCNC(=O)NCCCCCC(=O)OC`, for which the T/C by setting is: under setting [1], 90 % of control; under setting [2], 95 % of control; under setting [3], 87 % of control; under setting [4], 93 % of control; under setting [5], 90 % of control; (dose: 400.0 mg/kg/injection, schedule: Q04DX003 (ip), vehicle: Klucel (hydroxypropylcellulose) (HPC)) 93 % of control.
For `CC(Oc1cc(Cl)ccc1Cl)C(=O)O` (stereo unspecified), the T/C runs as follows: (dose: 50.0 mg/kg/injection, schedule: Q04DX003 (ip), vehicle: Klucel (hydroxypropylcellulose) (HPC)) 114 % of control; under setting [1], 110 % of control; under setting [2], 105 % of control; under setting [3], 114 % of control; under setting [4], 104 % of control; under setting [5], 108 % of control.
Consider `CCCCCCCCCCCCSC(=O)Nc1ccc(C(=O)OCC)cc1`, for which the T/C is, setting by setting: (dose: 100.0 mg/kg/injection, schedule: Q04DX002 (ip), vehicle: Klucel (hydroxypropylcellulose) (HPC)) 95 % of control; (dose: 200.0 mg/kg/injection, schedule: Q04DX002 (ip), vehicle: Klucel (hydroxypropylcellulose) (HPC)) 116 % of control; (dose: 400.0 mg/kg/injection, schedule: Q04DX002 (ip), vehicle: Klucel (hydroxypropylcellulose) (HPC)) 92 % of control.
Take `N=C(N)c1ccncc1`: the T/C is 104 % of control under setting [6]; 104 % of control (dose: 200.0 mg/kg/injection, schedule: Q04DX003 (ip), vehicle: saline); 107 % of control (dose: 400.0 mg/kg/injection, schedule: Q04DX003 (ip), vehicle: saline).
`Fc1c(F)c(F)[c]([Hg][c]2c(F)c(F)c(F)c(F)c2F)c(F)c1F`: the T/C is 107 % of control (dose: 3.13 mg/kg/injection, schedule: Q04DX002 (ip), vehicle: saline with Tween-80); 93 % of control (dose: 6.25 mg/kg/injection, schedule: Q04DX002 (ip), vehicle: saline with Tween-80); 87 % of control (dose: 12.5 mg/kg/injection, schedule: Q04DX002 (ip), vehicle: saline with Tween-80); 97 % of control (dose: 25.0 mg/kg/injection, schedule: Q04DX002 (ip), vehicle: saline with Tween-80).
As to `O=[N+]([O-])c1ccc(N/N=C\c2ccc(OCCOCCCl)cc2)c([N+](=O)[O-])c1`, the T/C by setting is: (dose: 25.0 mg/kg/injection, schedule: Q01DX001 (ip), vehicle: saline with Tween-80) 94 % of control; (dose: 50.0 mg/kg/injection, schedule: Q01DX001 (ip), vehicle: saline with Tween-80) 86 % of control; (dose: 100.0 mg/kg/injection, schedule: Q01DX001 (ip), vehicle: saline with Tween-80) 94 % of control and 92 % of control.
With `O=C1CCc2ccccc2C(=O)C1c1ccc(Cl)cc1` (stereo unspecified), the T/C is 90 % of control under setting [7], 97 % of control under setting [8] and 93 % of control under setting [9].
As for `Cc1ccccc1SC(=O)Nc1ccc([N+](=O)[O-])cc1Cl`, the T/C runs as follows: under setting [1], 96 % of control; under setting [3], 94 % of control; under setting [5], 94 % of control.
As to `N=C(N)c1ccc(-c2cc3cc(C(=N)N)ccc3s2)cc1`, the T/C under setting [6] is 105 % of control.
For `CC1CN=C(c2ccc([N+](=O)[O-])cc2)S1` (stereo unspecified), the T/C is, setting by setting: under setting [10], 100 % of control; under setting [11], 95 % of control; under setting [12], 94 % of control.
Take `CC(=O)c1ccc(CC(C)C)cc1`: the T/C was 90 % of control (dose: 150.0 mg/kg/injection, schedule: Q01DX009 (ip), vehicle: Klucel (hydroxypropylcellulose) (HPC)) and 94 % of control (dose: 300.0 mg/kg/injection, schedule: Q01DX009 (ip), vehicle: Klucel (hydroxypropylcellulose) (HPC)).
As to `N#C/C(=C\c1ccco1)C1CCCCC1`, the T/C reads like this: (dose: 100.0 mg/kg/injection, schedule: Q04DX002 (ip), vehicle: other) 86 % of control; (dose: 200.0 mg/kg/injection, schedule: Q04DX002 (ip), vehicle: other) 104 % of control.
Regarding `CN(C)CCCC1c2ccccc2Oc2ccc(C(F)(F)F)cc21` (stereo unspecified), the T/C by setting is: (dose: 0.78 mg/kg/injection, schedule: Q04DX003 (ip), vehicle: saline) 103 % of control; (dose: 1.56 mg/kg/injection, schedule: Q04DX003 (ip), vehicle: saline) 102 % of control; (dose: 3.12 mg/kg/injection, schedule: Q04DX003 (ip), vehicle: saline) 105 % of control; (dose: 6.25 mg/kg/injection, schedule: Q04DX003 (ip), vehicle: saline) 105 % of control; (dose: 12.5 mg/kg/injection, schedule: Q04DX003 (ip), vehicle: saline) 102 % of control; (dose: 25.0 mg/kg/injection, schedule: Q04DX003 (ip), vehicle: saline) 117 % of control. Besides, for the setting “dose: 50.0 mg/kg/injection, schedule: Q01DX009 (ip), vehicle: saline”, the T/C is 100 % of control.
As for `O=C(NC(Cc1ccccc1)C(=O)O)c1ccccc1` (stereo unspecified), the T/C is 91 % of control (dose: 100.0 mg/kg/injection, schedule: Q01DX009 (ip), vehicle: saline with Tween-80); 94 % of control and 92 % of control under setting [7]; 95 % of control (dose: 200.0 mg/kg/injection, schedule: Q01DX009 (ip), vehicle: saline with Tween-80); 96 % of control and 95 % of control under setting [8]; 90 % of control (dose: 400.0 mg/kg/injection, schedule: Q01DX009 (ip), vehicle: saline with Tween-80); 97 % of control and 90 % of control under setting [9].
For `[N-]=[N+]=N/C(=C\c1ccccc1)C(=O)c1ccccc1`, the T/C under setting [10] was 94 % of control; the T/C (dose: 100.0 mg/kg/injection, schedule: Q04DX003 (ip), vehicle: other) was 100 % of control; the T/C under setting [11] was 98 % of control; the T/C (dose: 200.0 mg/kg/injection, schedule: Q04DX003 (ip), vehicle: other) was 98 % of control; the T/C under setting [12] was 94 % of control; the T/C (dose: 400.0 mg/kg/injection, schedule: Q04DX003 (ip), vehicle: other) is 91 % of control.
In the case of `CN1CCc2cc3c(cc2C(=O)Cc2ccc4c(c2C1)OCO4)OCO3`, the T/C (dose: 25.0 mg/kg/injection, schedule: Q04DX003 (ip), vehicle: saline with Tween-80) was 103 % of control; the T/C (dose: 50.0 mg/kg/injection, schedule: Q04DX003 (ip), vehicle: saline with Tween-80) is 97 % of control; the T/C (dose: 100.0 mg/kg/injection, schedule: Q01DX001 (ip), vehicle: carboxymethylcellulose (CMC)) is 100 % of control; the T/C under setting [7] is 102 % of control.

The values are drawn from PubChem BioAssay AID248 (DTP/NCI, 2004).
